Results on five compounds are retold here after ChEMBL document CHEMBL1201862, “PubChem BioAssay data set” (2004).

Some test systems named below: NCI-H522; OVCAR-8; HCT-15; 786-0; NCI-H460; RPMI-8226; SNB-19; NCI-H23; SK-MEL-28; HL-60; LOX IMVI; EKVX; Malme-3M; MOLT-4; HOP-92.
Common to all, as to experiment: NCI anticancer screen, dose series, 48 h

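Exposure lasted 48 hours, with cells grown in 96-well plates and compounds tested at five concentrations. The concentration for 50% growth inhibition is given as GI50.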 The source made the active and inactive calls. No stated cut-off is given here; in the data, active = GI50 up to about 1.1 µM and inactive = higher.

In the case of `COC(=O)c1ccc(C=C(C#N)C#N)cc1`, the GI50 was 13.7 µM (inactive) in the assay on NCI-H522; 21.9 µM (inactive) in the assay with OVCAR-8; 35 µM with HCT-15; 16.9 µM (inactive) in the assay with 786-0; 83.6 µM (inactive) in the assay on NCI-H460; 22.5 µM (inactive) in the assay with RPMI-8226. The GI50 was 38.5 µM (inactive) with SNB-19; 19.4 µM (inactive) with NCI-H23; 19.3 µM (inactive) with SK-MEL-28; 28.4 µM (inactive) in the assay with HL-60; 21 µM (inactive) in the assay on LOX IMVI; 33.8 µM (inactive) in the assay on EKVX. Moreover, the GI50 in the assay with Malme-3M is 20.7 µM (inactive); with MOLT-4 it was 21.7 µM (inactive); with HOP-92, 14.7 µM (inactive).
For `O=C(N/C(=C\c1ccc(Cl)cc1)c1nc2ccccc2[nH]1)c1ccccc1`, the GI50 in the assay with NCI-H522 was 12.7 µM (inactive); in the assay with OVCAR-8 it was 24.5 µM (inactive); in the assay on HCT-15, 26.4 µM; with 786-0 it was 18.9 µM (inactive); in the assay with NCI-H460, 22.1 µM (inactive); in the assay on RPMI-8226 it was 16.7 µM (inactive). Besides, the GI50 in the assay with SNB-19 is 27.2 µM (inactive); in the assay on NCI-H23, 18.3 µM (inactive); in the assay on SK-MEL-28 it was 18.5 µM (inactive); in the assay with LOX IMVI, 16.2 µM (inactive); in the assay with EKVX, 26.9 µM (inactive); with Malme-3M it was 34 µM (inactive). Moreover, the GI50 in the assay with MOLT-4 is 16.5 µM (inactive); in the assay on HOP-92, 14.9 µM (inactive).
As to `COC(=O)c1cc2c(=O)n(C)c3ccccc3n2c1C(=O)OC`, the GI50 in the assay on NCI-H522 was 20 µM (inactive); in the assay with OVCAR-8, 35.8 µM (inactive); with HCT-15, 80.2 µM; in the assay with 786-0, 22.8 µM (inactive); with NCI-H460, > 100 µM (inactive); in the assay with RPMI-8226, 71.9 µM (inactive). Further, the GI50 in the assay with SNB-19 was 34.7 µM (inactive); with NCI-H23, 40.7 µM (inactive); in the assay on SK-MEL-28 it was 70.5 µM (inactive); in the assay on LOX IMVI, 45.2 µM (inactive); with EKVX it was 26.9 µM (inactive); with Malme-3M, > 100 µM (inactive). For the same compound, the GI50 in the assay on MOLT-4 is > 100 µM (inactive); with HOP-92, 33 µM (inactive).
Consider `CCN1C2=NC(=O)N(C)C(=O)C2(Cl)C(C(SC)S(=O)(=O)c2ccc(C)cc2)c2ccccc21` (stereo unspecified), for which the GI50 was 11.8 µM (inactive) with NCI-H522; 21.2 µM (inactive) in the assay with OVCAR-8; 25.1 µM (inactive) with 786-0; 83.4 µM (inactive) with NCI-H460; 12.7 µM (inactive) with RPMI-8226; 51.9 µM (inactive) in the assay with SNB-19. Also, the GI50 in the assay on NCI-H23 was 20 µM (inactive); in the assay on SK-MEL-28 it was 24.3 µM (inactive); in the assay on HL-60, 4.2 µM (inactive); in the assay on LOX IMVI, 31.3 µM (inactive); with EKVX, > 100 µM (inactive); in the assay with Malme-3M, 47.3 µM (inactive). The figures for the GI50 in the assay with MOLT-4 and with HOP-92 were 3.7 µM (inactive) and 30.6 µM (inactive), respectively.
For the compound `COC1=CC(=O)C2(C=C1OC)OC[C@H]1Oc3c(ccc4c3C=CC(C)(C)O4)C(=O)[C@H]12` (stereo partly specified), the GI50 with NCI-H522 is 16.7 µM (inactive); with OVCAR-8 it was 37.5 µM (inactive); with 786-0, 68.1 µM (inactive); in the assay with NCI-H460, 49.2 µM (inactive); in the assay with RPMI-8226, 22.6 µM (inactive); with SNB-19, 47 µM (inactive). For the same compound, the GI50 in the assay on NCI-H23 was 23.7 µM (inactive); in the assay with SK-MEL-28 it was 41.2 µM (inactive); with HL-60, 15.6 µM (inactive); with LOX IMVI, 78.9 µM (inactive); in the assay with EKVX, 27.4 µM (inactive); in the assay with Malme-3M, 57 µM (inactive). In addition, the figures for the GI50 in the assay with MOLT-4 and with HOP-92 were 27.4 µM (inactive) and 7.64 µM (inactive), respectively.
